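Five concentrations, 48 hours, 96-well plates. GI50 = concentration required for 50% inhibition of growth. Definition used: TGI = concentration required for complete inhibition of growth.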
Assays:
Assay in all cases: inhibition of tumour cell growth, NCI panel, 48 h
NCI-H522 lung = tested on: NCI-H522 lung
HCT-15 colon = tested on: HCT-15 colon
KM12 colon = tested on: KM12 colon
U251 CNS = tested on: U251 CNS
SNB-75 CNS = tested on: SNB-75 CNS
EKVX NSCLC = tested on: EKVX NSCLC
MALME-3M melanoma = tested on: MALME-3M melanoma
SF-295 CNS = tested on: SF-295 CNS
KM20L2 colon = tested on: KM20L2 colon
DLD-1 colon = tested on: DLD-1 colon

SMILES	GI50 (NCI-H522 lung) [µM]	TGI (NCI-H522 lung) [µM]	GI50 (HCT-15 colon) [µM]	TGI (HCT-15 colon) [µM]	GI50 (KM12 colon) [µM]	TGI (KM12 colon) [µM]	GI50 (U251 CNS) [µM]	TGI (U251 CNS) [µM]	GI50 (SNB-75 CNS) [µM]	TGI (SNB-75 CNS) [µM]	GI50 (EKVX NSCLC) [µM]	TGI (EKVX NSCLC) [µM]	GI50 (MALME-3M melanoma) [µM]	TGI (MALME-3M melanoma) [µM]	GI50 (SF-295 CNS) [µM]	TGI (SF-295 CNS) [µM]	TGI (KM20L2 colon) [µM]	TGI (DLD-1 colon) [µM]
COCc1cc(C(=O)Nc2cc([C@H]3CC[C@@H](OC(=O)NC(C)C)C3)[nH]n2)n(C)n1	16.2	47.2	22.8	> 100	1.27	23.1	8.94	> 100	3.86	22.4	19.1	85.8	24.2	74.1	13	> 100	–	–
O=[P+](O)c1ccsc1	–	> 100	–	> 100	–	–	–	> 100	–	–	–	> 100	–	–	–	–	> 100	> 100
Cc1nc2ccccc2c(/C=C/c2ccc(Cl)cc2)c1C(=O)/C=C/c1ccc(C(F)(F)F)cc1	0.198	0.838	0.179	0.599	1.28	3.46	0.264	0.865	1.28	2.57	0.865	2.31	0.404	1.56	1.47	2.79	–	–
CC(C)O/N=C/c1cc(NC(=S)OC(C)C)ccc1Cl	–	> 67.4	–	> 66.1	–	> 100	–	> 70.2	–	57.2	–	> 75.2	–	> 100	–	62.7	–	–
COC(=O)C(C(=O)C(=O)Nc1ccc([N+](=O)[O-])cc1[N+](=O)[O-])c1nc2ccc(Cl)cc2[nH]c1=O (stereo not given)	–	–	–	> 100	–	> 100	–	–	–	> 100	–	> 100	–	> 100	–	> 100	> 100	> 100
COc1cccc(NC(=O)c2sc3nc(C)c(C(O)c4ccccc4)cc3c2N)c1 (stereo not given)	0.308	14.1	0.0924	12.4	0.337	11.8	0.289	22.3	0.174	4.55	0.76	34.8	0.58	27.4	0.276	6.82	–	–
NCC1OC(n2cnc3c(N)ncnc32)CC1O (stereo not given)	–	> 100	–	> 100	–	> 100	–	> 100	–	> 100	–	> 100	–	> 100	–	> 100	–	–
C#CCSc1cc(Cl)c(C)cc1S(=O)(=O)Nc1nc2ccccc2o1	25.7	61.5	31.5	90	27.4	75.4	38.5	> 100	85.8	> 100	43.4	> 100	28.1	73.5	25.5	61.2	–	–
Cn1c2c(c3ccc([N+](=O)[O-])cc3c1=O)C(=O)c1ccccc1-2	> 100	> 100	> 100	> 100	> 100	> 100	> 100	> 100	> 100	> 100	> 100	> 100	70.3	> 100	22.7	> 100	–	–
CNC(=O)c1ccccc1Nc1nc(Nc2cc(OC)c(OC)c(OC)c2)ncc1Br	0.0417	1.85	0.0283	7.75	< 0.0136	4.98	0.0426	3.38	< 0.0124	0.0494	0.0308	1.01	0.0266	1.79	0.0282	0.868	–	–
NCCCCCCCn1c2c(c3ccccc3c1=O)C(=O)c1ccccc1-2	1.58	3.46	1.53	5.2	1.68	3.82	2.48	7.07	2.17	4.55	10	21.7	1.98	4.01	1.74	4.28	–	–
C=C1CCC2C3(C)COC(c4ccccc4)OC3CCC2(C)C1/C=C/C1=CCOC1=O (stereo not given)	3.65	14.9	2.41	11.5	2.91	11.4	2.87	12.3	2.64	10.1	13.7	> 100	15.6	32.6	14.1	51.9	–	–
C=CC(=O)Nc1cc(C)ccc1Nc1nc(Nc2cc(OC)ncc2C)ncc1C(F)(F)F	1.14	> 31.6	1.05	> 28.5	1.13	> 58.1	0.758	> 100	0.285	1.45	0.438	3.1	0.0211	0.161	2.84	> 100	–	–
Cn1cnc([N+](=O)[O-])c1Sc1nc(N)nc2c1ncn2C1CC(O)C(CO)O1 (stereo not given)	–	14.4	–	> 100	–	12.1	–	> 100	–	37.7	–	> 100	–	> 100	–	> 100	–	–
Cc1csc(/C=C/C(=O)c2nnn(-c3ccnc4c(C(F)(F)F)cccc34)c2C)c1	26.4	> 100	57.5	> 100	52.7	> 100	39.2	> 100	27.3	99.4	69.3	> 100	> 100	> 100	> 100	> 100	–	–
CCOC(=O)c1cc2c(cc1Cl)SC(N(c1ccc(OC)cc1)S(=O)(=O)c1ccc(Cl)cc1)=NS2(=O)=O	21	64.8	32.3	> 100	46.7	> 100	29.1	88.4	23.3	90.4	41.7	> 100	28.1	> 100	54.9	> 100	–	–
O=C(COc1cc(O)c2c(=O)cc(-c3ccccc3)oc2c1)Nc1ccccc1C(F)(F)F	6.77	> 100	3.28	21.1	8.17	> 100	2.01	4.45	1.65	4.41	9.37	62.4	3.17	> 100	2.94	9.13	–	–

— PubChem BioAssay (NCI)
